According to patent publication US8546321B2, “IL-4-derived peptides for modulation of the chronic inflammatory response and treatment of autoimmune diseases” (Kobenhavns Universitet, priority 2008, dated 2013):
Read-outs that look alike come from different tables or passages of the source.

What was measured:
[1] = tested on: cerebellar granular neurons (CGN); assay: Neurite outgrowth assay in cultures of cerebellar granule neurons; format: cell-based, Wistar rats; conditions: P7 CGN, peptides added after plating, 24 h
Experimental: Cerebellar granular neurons (CGN) were prepared from 3 or 7 postnatal (P) day Wistar rats (Charles River, Sulzfeld, Germany or Taconic, Ejby, Denmark). Cerebella were cleared of meninges and blood vessels, roughly homogenized by chopping, and trypsinized with trypsin from Sigma-Aldrich (Brøndby, Denmark). The neurons were washed in the presence of DNAse 1 and soybean trypsin inhibitor (Sigma-Aldrich), and cellular debris was pelleted by centrifugation before plating. For single-cell culture experiments, P7 CGNs were plated at a density of 10,000 cells/well onto uncoated eight-well Lab-Tek chamber slides (NUNC, Slangerup, Denmark) in Neurobasal-A medium supplemented with 0.4% (w/v) BSA. Peptides at various concentrations were added to the medium immediately after plating, and cells were maintained at 37° C. and 5% CO2 for 24 h. Cultures then were fixed, blocked and incubated with polyclonal rabbit antibody against rat GAP-43 (Chemicon, Temecula, Calif., USA) followed by incubation with secondary Alexa Fluor488 goat anti-rabbit antibody (Molecular Probes, Eugene, Oreg., USA) as previously described (Neiiendam et al., 2004). The immunostained cultures were all recorded by computer-assisted fluorescence microscopy using a Nikon Diaphot inverted microscope (Nikon, Japan) equipped with a Nikon Plane 20× objective. Images were captured with a charge-coupled device video camera (Grundig Electronics, Nurnberg, Germany) using the software package Prima developed at the Protein Laboratory (University of Copenhagen, Copenhagen, Denmark). The length of neuronal processes per cell was estimated using the software package Process Length developed at the Protein Laboratory (Ronn et al. 2000). For estimation of neurite outgrowth, at least 200±20 cells were processed for each group in each individual experiment.

[2] = repeated daily dosing; cited from earlier work
[3] = tested on: psoriasis; conditions: correcting imbalances in immune functions (Martin 2003); cited from earlier work
[4] = tested on: malignancies; conditions: in this dose and schedule (Whitehead et al., 1998); cited from earlier work
[5] = subcutaneous administration, cited from earlier work

Substance: AERLKTIMREKYSKS (Variant of fragment of interleukin-4) [SEQ ID NO: 4]
- neuritogenic response from primary neurons [1]: induce a neuritogenic response

Substance: AITLQEIIKTLNSA (Variant of fragment of interleukin-4) [SEQ ID NO: 2]
- neuritogenic response from primary neurons [1]: induce a neuritogenic response

Substance: AQFHRHKQLIRFLKRA (Variant of fragment of interleukin-4) [SEQ ID NO: 1]
- neuritogenic response from primary neurons [1]: induce a neuritogenic response

Substance: ARFLKRLDRNLWGG (Variant of fragment of interleukin-4) [SEQ ID NO: 3]
- neuritogenic response from primary neurons [1]: induce a neuritogenic response

Substance: rhulL-4: Escherichia coli-derived recombinant human interleukin-4
- adverse effects [2]: a number of adverse effects
- benefit in patients with psoriasis [3]: beneficial
- antitumor activity [4]: only low antitumor activity
- safety and tolerability ([5]; as high as 10 μg/kg administered 3 times/week): safe and well tolerated
- safety and tolerability ([5]; doses as high as 5 μg/kg/day): safe and well tolerated
